Values after ≈ are worked out from the molar mass of the structure shown.
What was measured:
[1] = Ratio of drug concentration in brain to plasma in C57BL/6 mouse at 30 mg/kg, po measured at 24 hrs; type: ADME, organism-based; conditions: brain and plasma, read-out: BPR
[2] = Genotoxicity in human TK6 cells assessed as micronuclei formation by micronucleus test; type: toxicity, cell-based
[3] = biological target: Phosphatidylinositol 4,5-bisphosphate 3-kinase catalytic subunit alpha isoform (Homo sapiens, UniProt P42336); test: Inhibition of PI3Kalpha (unknown origin)
Sequence of Phosphatidylinositol 4,5-bisphosphate 3-kinase catalytic subunit alpha isoform (P42336 whole entry, canonical isoform): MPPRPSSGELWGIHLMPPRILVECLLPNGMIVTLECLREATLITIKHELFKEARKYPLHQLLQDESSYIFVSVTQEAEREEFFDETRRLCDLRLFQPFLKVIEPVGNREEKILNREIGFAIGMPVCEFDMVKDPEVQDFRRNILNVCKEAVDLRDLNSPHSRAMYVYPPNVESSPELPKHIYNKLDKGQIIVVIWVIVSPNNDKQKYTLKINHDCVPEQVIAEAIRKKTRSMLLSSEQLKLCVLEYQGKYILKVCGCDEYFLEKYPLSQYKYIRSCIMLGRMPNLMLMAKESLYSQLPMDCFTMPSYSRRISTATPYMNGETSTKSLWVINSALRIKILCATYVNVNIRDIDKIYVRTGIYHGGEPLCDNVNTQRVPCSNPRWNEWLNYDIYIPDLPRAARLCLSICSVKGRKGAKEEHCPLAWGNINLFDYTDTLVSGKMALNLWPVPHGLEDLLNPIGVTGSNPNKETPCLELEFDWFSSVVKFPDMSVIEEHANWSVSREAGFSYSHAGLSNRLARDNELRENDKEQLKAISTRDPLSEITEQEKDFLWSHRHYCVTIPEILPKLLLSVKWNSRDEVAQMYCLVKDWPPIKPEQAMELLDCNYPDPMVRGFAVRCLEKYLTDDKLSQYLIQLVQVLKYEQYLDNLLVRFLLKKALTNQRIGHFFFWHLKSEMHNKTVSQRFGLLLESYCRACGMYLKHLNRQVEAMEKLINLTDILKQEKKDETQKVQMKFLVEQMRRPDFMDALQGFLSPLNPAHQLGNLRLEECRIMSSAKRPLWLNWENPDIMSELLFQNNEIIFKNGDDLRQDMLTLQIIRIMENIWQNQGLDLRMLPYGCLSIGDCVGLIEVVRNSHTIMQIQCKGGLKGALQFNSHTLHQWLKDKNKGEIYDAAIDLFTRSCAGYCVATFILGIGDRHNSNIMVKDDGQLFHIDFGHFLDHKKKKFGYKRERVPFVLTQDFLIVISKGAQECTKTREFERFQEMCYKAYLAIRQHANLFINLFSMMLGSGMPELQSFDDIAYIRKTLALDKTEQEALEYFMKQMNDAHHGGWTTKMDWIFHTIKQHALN

[4] = biological target: Phosphatidylinositol 4,5-bisphosphate 3-kinase catalytic subunit beta isoform (Homo sapiens, UniProt P42338); test: Inhibition of PI3Kbeta (unknown origin)
Sequence of Phosphatidylinositol 4,5-bisphosphate 3-kinase catalytic subunit beta isoform (P42338 whole entry, canonical isoform): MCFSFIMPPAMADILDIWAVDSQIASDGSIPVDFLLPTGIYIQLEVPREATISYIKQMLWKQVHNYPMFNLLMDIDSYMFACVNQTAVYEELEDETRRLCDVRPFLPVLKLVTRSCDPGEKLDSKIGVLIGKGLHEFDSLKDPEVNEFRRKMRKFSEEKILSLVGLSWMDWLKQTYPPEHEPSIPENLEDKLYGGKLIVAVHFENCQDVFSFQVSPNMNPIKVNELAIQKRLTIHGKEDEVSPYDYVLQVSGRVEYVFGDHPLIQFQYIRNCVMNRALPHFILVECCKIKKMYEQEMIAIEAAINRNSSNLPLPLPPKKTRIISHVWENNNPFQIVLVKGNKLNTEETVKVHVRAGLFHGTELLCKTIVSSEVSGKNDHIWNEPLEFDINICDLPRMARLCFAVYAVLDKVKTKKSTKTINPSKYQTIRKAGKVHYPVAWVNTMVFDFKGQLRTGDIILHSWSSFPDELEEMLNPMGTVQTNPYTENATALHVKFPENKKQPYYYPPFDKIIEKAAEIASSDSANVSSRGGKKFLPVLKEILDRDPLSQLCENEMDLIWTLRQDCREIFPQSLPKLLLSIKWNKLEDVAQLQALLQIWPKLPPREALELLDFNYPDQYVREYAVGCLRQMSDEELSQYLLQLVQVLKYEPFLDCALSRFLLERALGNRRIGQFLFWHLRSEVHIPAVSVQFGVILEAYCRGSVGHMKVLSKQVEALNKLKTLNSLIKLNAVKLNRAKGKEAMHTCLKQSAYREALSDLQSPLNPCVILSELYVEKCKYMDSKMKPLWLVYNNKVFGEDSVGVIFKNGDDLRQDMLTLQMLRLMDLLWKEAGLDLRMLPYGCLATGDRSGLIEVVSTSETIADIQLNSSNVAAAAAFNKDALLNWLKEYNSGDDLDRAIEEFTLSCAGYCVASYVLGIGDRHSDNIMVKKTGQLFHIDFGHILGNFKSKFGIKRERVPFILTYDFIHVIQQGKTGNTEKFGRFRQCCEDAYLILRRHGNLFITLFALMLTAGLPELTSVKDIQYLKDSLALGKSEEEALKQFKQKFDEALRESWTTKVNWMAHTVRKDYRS

Cytochrome P450 3A4 = Cytochrome P450 3A4 (Homo sapiens, UniProt P08684); test: Inhibition of CYP3A4 (unknown origin); type: ADME
Sequence of Cytochrome P450 3A4 (P08684 whole entry): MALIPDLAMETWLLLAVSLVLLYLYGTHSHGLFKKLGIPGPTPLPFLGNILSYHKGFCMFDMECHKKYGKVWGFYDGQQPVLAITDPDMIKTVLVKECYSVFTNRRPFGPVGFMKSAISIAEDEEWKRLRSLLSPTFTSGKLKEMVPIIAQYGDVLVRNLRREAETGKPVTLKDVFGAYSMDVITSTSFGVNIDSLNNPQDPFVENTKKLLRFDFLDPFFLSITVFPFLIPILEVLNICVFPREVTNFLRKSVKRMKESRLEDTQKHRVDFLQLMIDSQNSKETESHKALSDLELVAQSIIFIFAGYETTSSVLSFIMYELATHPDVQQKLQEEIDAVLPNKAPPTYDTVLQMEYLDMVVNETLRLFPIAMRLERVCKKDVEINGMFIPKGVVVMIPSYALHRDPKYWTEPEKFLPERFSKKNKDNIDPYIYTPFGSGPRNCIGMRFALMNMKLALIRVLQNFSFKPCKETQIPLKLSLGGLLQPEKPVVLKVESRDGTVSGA

Cytochrome P450 2D6 = Cytochrome P450 2D6 (Homo sapiens, UniProt P10635); test: Inhibition of CYP2D6 (unknown origin); type: ADME
Sequence of Cytochrome P450 2D6 (P10635 whole entry): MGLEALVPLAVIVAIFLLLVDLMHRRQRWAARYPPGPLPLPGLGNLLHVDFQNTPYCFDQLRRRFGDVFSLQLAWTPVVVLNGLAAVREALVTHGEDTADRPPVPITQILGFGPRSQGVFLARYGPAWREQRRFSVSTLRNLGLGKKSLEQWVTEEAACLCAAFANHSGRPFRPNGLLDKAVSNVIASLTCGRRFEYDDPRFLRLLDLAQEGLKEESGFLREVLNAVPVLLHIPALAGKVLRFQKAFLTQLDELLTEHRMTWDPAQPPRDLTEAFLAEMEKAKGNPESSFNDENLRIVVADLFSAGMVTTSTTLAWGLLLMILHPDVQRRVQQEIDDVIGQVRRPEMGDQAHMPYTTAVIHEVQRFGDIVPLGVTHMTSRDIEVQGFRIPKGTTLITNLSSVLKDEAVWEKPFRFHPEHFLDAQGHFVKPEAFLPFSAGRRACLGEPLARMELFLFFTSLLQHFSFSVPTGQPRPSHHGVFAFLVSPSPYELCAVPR

Cytochrome P450 2C9 = Cytochrome P450 2C9 (Homo sapiens, UniProt P11712); test: Inhibition of CYP2C9 (unknown origin); type: ADME
Sequence of Cytochrome P450 2C9 (P11712 whole entry): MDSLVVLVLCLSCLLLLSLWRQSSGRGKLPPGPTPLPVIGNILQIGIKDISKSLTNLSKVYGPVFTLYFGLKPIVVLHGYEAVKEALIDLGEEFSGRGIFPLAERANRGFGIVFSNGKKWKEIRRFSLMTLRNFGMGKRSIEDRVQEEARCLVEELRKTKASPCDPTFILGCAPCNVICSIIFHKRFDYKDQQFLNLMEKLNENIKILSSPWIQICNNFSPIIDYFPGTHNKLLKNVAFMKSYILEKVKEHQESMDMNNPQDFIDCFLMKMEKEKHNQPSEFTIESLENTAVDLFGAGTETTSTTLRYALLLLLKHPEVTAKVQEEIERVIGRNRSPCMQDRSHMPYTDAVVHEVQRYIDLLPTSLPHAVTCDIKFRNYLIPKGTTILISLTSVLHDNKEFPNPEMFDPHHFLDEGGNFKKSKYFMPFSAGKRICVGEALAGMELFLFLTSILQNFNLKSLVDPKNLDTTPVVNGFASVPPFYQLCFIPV

[5] = Metabolic stability in mouse liver microsomes assessed as intrinsic clearance at 1 uM incubated for 30 mins in presence of NADPH by LC-MS/MS analysis; type: ADME, Microsome; conditions: read-out: CLH
[6] = Metabolic stability in human liver microsomes assessed as intrinsic clearance at 1 uM incubated for 30 mins in presence of NADPH by LC-MS/MS analysis; type: ADME, Microsome; conditions: read-out: CLH
[7] = Apparent permeability across apical to basolateral side in MDCK-MDR1 cells; type: ADME, cell-based, Canis lupus familiaris; conditions: dog
[8] = Efflux ratio of apparent permeability across basolateral to apical side over apical to basolateral side in MDCK-MDR1 cells; type: ADME, cell-based, Canis lupus familiaris; conditions: dog
[9] = Solubility of compound at pH 6.8; type: physicochemical; conditions: buffer
[10] = Phototoxicity against mouse BALB/3T3 clone A31 cells assessed as reduction in cell viability incubated for 1 hr followed by irradiated with 5 J/cm^2 of light dose measured after 24 hrs by neutral red uptake assay; type: toxicity, cell-based; conditions: balb/3t3 clone a31, 1 h
[11] = Genotoxicity in human TK6 cells assessed as micronuclei formation in absence of S9 fraction by micronucleus test; type: toxicity, cell-based
[12] = AUC(0 to t) in C57BL/6 mouse at 1 mg/kg, iv measured upto 24 hrs by HPLC-MS analysis; type: ADME, organism-based; set-up: time < 24 hrs, dose 1 mg/kg, route iv; conditions: in vivo
[13] = AUC(0 to t) in C57BL/6 mouse at 3 mg/kg, ip measured upto 24 hrs by HPLC-MS analysis; type: ADME, organism-based; set-up: time < 24 hrs, dose 3 mg/kg, route ip; conditions: in vivo
[14] = AUC(0 to t) in Sprague-Dawley rat at 1 mg/kg, iv measured upto 24 hrs by HPLC-MS analysis; type: ADME, organism-based; set-up: dose 1 mg/kg, time < 24 hrs, route iv; conditions: in vivo
[15] = AUC(0 to t) in Sprague-Dawley rat at 3 mg/kg, po measured upto 24 hrs by HPLC-MS analysis; type: ADME, organism-based; set-up: dose 3 mg/kg, time < 24 hrs, route po; conditions: in vivo
[16] = Cmax in Sprague-Dawley rat at 3 mg/kg, po measured upto 24 hrs by HPLC-MS analysis; type: ADME, organism-based; set-up: dose 3 mg/kg, time < 24 hrs, route po; conditions: in vivo
[17] = Cmax in po dosed C57BL/6 mouse measured upto 24 hrs by HPLC-MS analysis; type: ADME, organism-based; set-up: time < 24 hrs, route po; conditions: in vivo
[18] = Tmax in C57BL/6 mouse at 1 mg/kg, iv and 3 mg/kg, ip measured upto 24 hrs by HPLC-MS analysis; type: ADME, organism-based; conditions: in vivo
[19] = Bioavailability in C57BL/6 mouse at 1 mg/kg, iv and 3 mg/kg, ip measured upto 24 hrs by HPLC-MS analysis; type: ADME, organism-based; conditions: in vivo
[20] = Bioavailability in Sprague-Dawley rat at 3 mg/kg, po and 1 mg/kg, iv measured upto 24 hrs by HPLC-MS analysis; type: ADME, organism-based; conditions: in vivo
[21] = Volume of distribution at steady state in Sprague-Dawley rat at 3 mg/kg, po and 1 mg/kg, iv measured upto 24 hrs by HPLC-MS analysis; type: ADME, organism-based; conditions: in vivo
[22] = Half life in C57BL/6 mouse at 1 mg/kg, iv and 3 mg/kg, ip measured upto 24 hrs by HPLC-MS analysis; type: ADME, organism-based; conditions: in vivo
[23] = MRT(0 to t) in C57BL/6 mouse at 1 mg/kg, iv and 3 mg/kg, ip measured upto 24 hrs by HPLC-MS analysis; type: ADME, organism-based; conditions: in vivo
[24] = Ratio of drug concentration in brain to plasma in Sprague-Dawley rat at 1 mg/kg, iv measured at 1 hr by HPLC-MS analysis; type: ADME, organism-based; conditions: brain and plasma, read-out: BPR
[25] = Ratio of drug concentration in brain to plasma in Sprague-Dawley rat at 3 mg/kg, po measured at 1 hr by HPLC-MS analysis; type: ADME, organism-based; conditions: brain and plasma, read-out: BPR
[26] = Plasma protein binding in C57BL/6 mouse plasma at 5 uM measured for 4 hrs by equilibrium dialysis method based LC/MS/MS analysis; type: ADME, cell-free; conditions: read-out: PPB (converted)
[27] = Plasma protein binding in Sprague-Dawley rat at 5 uM measured for 4 hrs by equilibrium dialysis method based LC/MS/MS analysis; type: ADME, cell-free; conditions: read-out: PPB (converted)
[28] = Protein binding in Sprague-Dawley rat brain at 5 uM measured for 4 hrs by equilibrium dialysis method based LC/MS/MS analysis; type: ADME, tissue-based; conditions: read-out: PB (converted)
[29] = biological target: Serine/threonine-protein kinase mTOR (Mus musculus) (UniProt Q9JLN9); test: Inhibition of mTOR in Tsc1 knockout mouse neurons assessed as reduction in phosphorylated S6 level incubated for 4 hrs by Hoechst staining based immunofluorescence analysis; type: cell-based; conditions: Neuron, dose 5.0 µM
[30] = Drug concentration in C57BL/6 mouse brain at 30 mg/kg, po measured after 1 hr; type: ADME, organism-based; conditions: read-out: Ct
[31] = Ratio of drug concentration in brain to plasma in C57BL/6 mouse at 10 mg/kg, po measured at 1 hr; type: ADME, organism-based; conditions: brain and plasma, read-out: BPR
[32] = Ratio of drug concentration in brain to plasma in C57BL/6 mouse at 30 mg/kg, po measured at 1 hr; type: ADME, organism-based; conditions: brain and plasma, read-out: BPR
[33] = Drug concentration in C57BL/6 mouse brain at 10 mg/kg, po measured after 3 hrs; type: ADME, organism-based; conditions: read-out: Ct
[34] = Drug concentration in C57BL/6 mouse brain at 30 mg/kg, po measured after 3 hrs; type: ADME, organism-based; conditions: read-out: Ct
[35] = Drug concentration in C57BL/6 mouse plasma at 30 mg/kg, po measured after 3 hrs; type: ADME, organism-based
[36] = Drug concentration in C57BL/6 mouse brain at 30 mg/kg, po measured after 24 hrs; type: ADME, organism-based; conditions: read-out: Ct
[37] = Drug concentration in C57BL/6 mouse plasma at 10 mg/kg, po measured after 24 hrs; type: ADME, organism-based

Row | Structure (SMILES) | Kp at 24 h [1] | Activity [2] | IC50 [3] | IC50 [4] | IC50 (Cytochrome P450 3A4) | IC50 (Cytochrome P450 2D6) | IC50 (Cytochrome P450 2C9) | microsomal CLint at 1 µM [5] | microsomal CLint at 1 µM [6] | Papp A→B [7] | efflux ratio [8] | solubility [9] | Activity [10] | Activity [11] | AUC(0-t) at 24 h [13] | AUC(0-t) at 24 h [14] | AUC(0-t) at 24 h [15] | Cmax [16] | Cmax [17] | Tmax [18] | further results
1 | C[C@@H]1COCCN1c1cc(N2CCOC[C@@H]2C)nc2[nH]c(-c3ccccn3)nc12 | 0.7 | Non-Toxic | > 10 µM | > 10 µM | > 50 µM | > 50 µM | > 50 µM | 24 µL/min/mg | 22 µL/min/mg | 41.5 ×10⁻⁶ cm/s | 0.48 | 180 µg/mL (≈ 456 µM) | Non-Toxic | Non-Toxic | 6.66 µM·h | 8.09 µM·h | 29.6 µM·h | 5050 nM | 1260 nM | 0.4 h | AUC(0-t) at 24 h ([12]; C57BL/6, mouse): 2.22 µM·h; bioavailability [19]: 98%; bioavailability [20]: 122%; Vdss [21]: 0.7 L/kg; half-life [22]: 2 h; MRT last at 24 h [23]: 2.3 h; Kp at 1 h [24]: 0.48; Kp at 1 h [25]: 0.72; fraction unbound at 4 h, 5 µM [26]: 0.065; fraction unbound at 4 h, 5 µM [27]: 0.134; fraction unbound at 4 h, 5 µM [28]: 0.035; inhibition [29]: Dose-Dependent Effect; concentration at 1 h [30]: 4050 nM; Kp at 1 h [31]: 0.6; Kp at 1 h [32]: 1.03; concentration at 3 h [33]: 1110 nM; concentration at 3 h [34]: 2720 nM; concentration at 3 h [35]: 4160 nM; concentration at 24 h [36]: 790 nM; concentration at 24 h [37]: 4 nM
2 | C[C@@H]1COCCN1c1cc(N2CCOC[C@@H]2C)nc2[nH]c(-c3cscn3)nc12 | 0.66 | Non-Toxic | > 10 µM | > 10 µM | > 50 µM | > 50 µM | > 50 µM | 13 µL/min/mg | 3.4 µL/min/mg | 14 ×10⁻⁶ cm/s | 0.87 | 20 µg/mL (≈ 49.9 µM) | Toxic | Non-Toxic | 11.7 µM·h | 2.39 µM·h | 6.45 µM·h | 1730 nM | 1920 nM | 1.5 h | AUCt ([12]; mouse, 24 h): 10.377 µM·h; bioavailability [19]: 112%; bioavailability [20]: 107%; Vdss [21]: 2.3 L/kg; half-life [22]: 2.7 h; MRT last at 24 h [23]: 3.4 h; Kp at 1 h [24]: 0.35; Kp at 1 h [25]: 0.33; fraction unbound at 4 h, 5 µM [26]: 0.068; fraction unbound at 4 h, 5 µM [27]: 0.18; fraction unbound at 4 h, 5 µM [28]: 0.086; inhibition [29]: Dose-Dependent Effect; concentration at 1 h [30]: 13100 nM; Kp at 1 h [31]: 0.97; Kp at 1 h [32]: 1.29; concentration at 3 h [33]: 3250 nM; concentration at 3 h [34]: 6320 nM; concentration at 3 h [35]: 8420 nM; concentration at 24 h [36]: 4650 nM; concentration at 24 h [37]: 211 nM

— ChEMBL document CHEMBL5331134, “Identification of Brain-Penetrant ATP-Competitive mTOR Inhibitors for CNS Syndromes” (J Med Chem, 2023)
